Data taken from patent US20220053762A1, “HERBICIDAL COMPOSITIONS” (Bayer Aktiengesellschaft, priority 2018, published 2022).

Tested on: harmful plant species
Assay: Specific trial examples: binary compositions applied by the post-emergence method, synergistic effect according to Colby (Tables 3.1-3.2)
Type: in vivo
Description: When the observed efficacies already exceed the formal sum total of the values of the tests with individual applications, they also exceed the expected value according to Colby, which is calculated using the formula below and is likewise regarded as an indication of synergism (cf. S. R. Colby; in Weeds 15 (1967) p. 20 to 22):
Seeds or rhizome pieces of mono- and dicotyledonous weeds are placed in sandy loam in pots, covered with soil and grown in a greenhouse under good growth conditions (temperature, air humidity, water supply). Three weeks after sowing, the test plants are treated at the three-leaf stage with the compositions according to the invention. The compositions according to the invention formulated as spray powders or as emulsion concentrates are sprayed onto the green plant parts in various dosages with an application rate of 300 to 800 l/ha of water (equivalent).
The sum total of the effects of the individual applications is reported under E^A; Expected values according to Colby are each reported under E^C.
The rating period is reported in days after application (DAT).

C=C[C@]1(C(=O)N[C@@H]2C=C(C(=O)NS(C)(=O)=O)OC2)CC(c2cc(F)cc(F)c2)=NO1 [Compound A4, (5S)-3-(3,5-difluorophenyl)-N-[(3R)-5-(methylsulfonylcarbamoyl)-2,3-dihydrofuran-3-yl]-5-vinyl-4H-isoxazole-5-carboxamide]
Herbicidal action 14 DAT against Alopecurus myosuroides (1 g a.i./ha): 10% | Herbicidal action 14 DAT against Bromus sterilis (1 g a.i./ha): 20% | Herbicidal action 14 DAT against Lolium rigidum (resistant biotype) (1 g a.i./ha): 10% | Herbicidal action 14 DAT against Matricaria inodora (1 g a.i./ha): 40% | Herbicidal action 14 DAT against Poa annua L. (1 g a.i./ha): 20% | Herbicidal action 14 DAT against Viola tricolor (1 g a.i./ha): 30% | Herbicidal action 28 DAT against Alopecurus myosuroides (1 g a.i./ha): 0% | Herbicidal action 28 DAT against Bromus sterilis (1 g a.i./ha): 10% | Herbicidal action 28 DAT against Lamium purpureum L. (1 g a.i./ha): 20% | Herbicidal action 28 DAT against Matricaria inodora (1 g a.i./ha): 10% | Herbicidal action 28 DAT against Viola tricolor (1 g a.i./ha): 0% | Herbicidal action 14 DAT against Centaurea cyanus (4 g a.i./ha): 30% | Herbicidal action 14 DAT against Lamium purpureum L. (4 g a.i./ha): 30% | Herbicidal action 14 DAT against Lolium rigidum (resistant biotype) (4 g a.i./ha): 10% | Herbicidal action 14 DAT against Matricaria inodora (4 g a.i./ha): 30% | Herbicidal action 14 DAT against Viola tricolor (4 g a.i./ha): 30% | Herbicidal action 28 DAT against Bromus sterilis (4 g a.i./ha): 30% | Herbicidal action 28 DAT against Lolium rigidum (4 g a.i./ha): 10% | Herbicidal action 28 DAT against Lolium rigidum (resistant biotype) (4 g a.i./ha): 0% | Herbicidal action 28 DAT against Matricaria inodora (4 g a.i./ha): 10% | Herbicidal action 28 DAT against Phalaris minor (4 g a.i./ha): 10% | Herbicidal action 28 DAT against Viola tricolor (4 g a.i./ha): 0% | Herbicidal action 14 DAT against Alopecurus myosuroides (16 g a.i./ha): 30% | Herbicidal action 14 DAT against Centaurea cyanus (16 g a.i./ha): 40% | Herbicidal action 14 DAT against Poa annua L. (16 g a.i./ha): 40% | Herbicidal action 28 DAT against Galium aparine (16 g a.i./ha): 20% | Herbicidal action against Galium aparine ((Z90) 28 DAT, g a.i./ha: r575 16, r576 270, r577 90, r578 30): 20% | Herbicidal action against Lamium purpureum L. ((Z90) 28 DAT, g a.i./ha: r586 16, r587 30): 30% | Herbicidal action against Lolium rigidum ((Z90) 28 DAT, g a.i./ha: r594 16, r595 30): 10% | Herbicidal action against Matricaria inodora ((Z90) 28 DAT, g a.i./ha: r602 4, r603 90): 10% | Herbicidal action against Viola tricolor ((Z90) 28 DAT, g a.i./ha: r624 4, r625 270): 0% | Herbicidal action in [%] 28 DAT against Galium aparine (post-emergence, single active compound (A4 series), g a.i./ha: r491 16, r492 50): 20% | Herbicidal action in [%] 14 DAT against Lamium purpureum L. (post-emergence, single active compound (A4 series), g a.i./ha: r501 4, r502 1, r503 450): 30% | Herbicidal action in [%] 28 DAT against Lamium purpureum L. (post-emergence, single active compound (A4 series), g a.i./ha: r512 4, r513 1, r514 450): 20% | Herbicidal action in [%] 28 DAT against Lolium rigidum (resistant bio type) (post-emergence, single active compound (A4 series), g a.i./ha: r523 1, r524 450): 0% | Herbicidal action in [%] 14 DAT against Poa annua L. (post-emergence, single active compound (A4 series), g a.i./ha: r533 16, r534 450): 40%
